In PMC5988656, “Phase I studies of AZD1208, a proviral integration Moloney virus kinase inhibitor in solid and haematological cancers” (British Journal of Cancer, 2018):

Assay: Solid tumour dose-escalation study: pharmacokinetics (plasma, urine)
Type: in vivo, human
Conditions: for Plasma concentration of AZD1208, Gmean: Cycle 1, Day 15
Method: The schedules for collection of blood and urine samples for PK analyses in each cohort in both studies are described in Supplementary Table 1. When necessary for clinical response assessment in the AML study, a bone marrow sample for PK analysis was collected at Cycle 1, Day 28.
The concentration of AZD1208 in plasma and urine was determined by Covance, on behalf of Clinical Bioanalysis Alliance at AstraZeneca R&D, using a bioanalytical method. A volume of 0.05 ml of K2EDTA human plasma sample was extracted by liquid–liquid extraction using 0.7 ml of methyl tert-butyl ether. Approximately 100 µl of the supernatant was transferred, evaporated to dryness and reconstituted with 350 µl of 1:1 methanol:water, and a 5 µl injection was made to the high-performance liquid chromatography (HPLC) column. HPLC separations were performed on a Phenomenex LUNA C18 (50 × 2 mm, 5 µm) column using a mobile phase of 0.1% formic acid in water (A) and 0.1% formic acid in acetonitrile (B) at a flow rate of 0.6 ml/min and a column temperature of 40 °C. AZD1208-D5 was used as the internal standard. Detection was performed in a Sciex API4000 mass spectrometer, in a positive electrospray ionisation mode, using multiple reaction monitoring detection (AZD1208: 380.0–>248.1; AZD1208-D5: 385.0–>253.1).

Structure (SMILES): N[C@@H]1CCCN(c2c(/C=C3\SC(=O)NC3=O)cccc2-c2ccccc2)C1 [AZD1208]
- Plasma concentration of AZD1208, Gmean (0.25 h post-dose, 540 mg): n=3 496.8 ng ml
- Plasma concentration of AZD1208, Gmean (0.5 h post-dose, 120 mg): n=3 1109 ng ml
- Plasma concentration of AZD1208, Gmean (0.5 h post-dose, 240 mg): n=6 881.5 ng ml
- Plasma concentration of AZD1208, Gmean (0.5 h post-dose, 360 mg): n=3 884.4 ng ml
- Plasma concentration of AZD1208, Gmean (0.5 h post-dose, 540 mg): n=3 774 ng ml
- Plasma concentration of AZD1208, Gmean (0.5 h post-dose, 700 mg): n=4 1042 ng ml
- Plasma concentration of AZD1208, Gmean (0.5 h post-dose, 800 mg): n=2 1420 ng ml
- Plasma concentration of AZD1208, Gmean (1 h post-dose, 120 mg): n=3 1319 ng ml
- Plasma concentration of AZD1208, Gmean (1 h post-dose, 240 mg): n=6 1316 ng ml
- Plasma concentration of AZD1208, Gmean (1 h post-dose, 360 mg): n=3 1983 ng ml
- Plasma concentration of AZD1208, Gmean (1 h post-dose, 540 mg): n=3 1691 ng ml
- Plasma concentration of AZD1208, Gmean (1 h post-dose, 700 mg): n=4 1320 ng ml
- Plasma concentration of AZD1208, Gmean (1 h post-dose, 800 mg): n=2 1783 ng ml
- Plasma concentration of AZD1208, Gmean (1.5 h post-dose, 120 mg): n=3 1367 ng ml
- Plasma concentration of AZD1208, Gmean (1.5 h post-dose, 240 mg): n=6 1843 ng ml
- Plasma concentration of AZD1208, Gmean (1.5 h post-dose, 360 mg): n=3 3212 ng ml
- Plasma concentration of AZD1208, Gmean (1.5 h post-dose, 540 mg): n=3 3302 ng ml
- Plasma concentration of AZD1208, Gmean (2 h post-dose, 120 mg): n=3 1681 ng ml
- Plasma concentration of AZD1208, Gmean (2 h post-dose, 240 mg): n=6 2340 ng ml
- Plasma concentration of AZD1208, Gmean (2 h post-dose, 360 mg): n=3 3106 ng ml
- Plasma concentration of AZD1208, Gmean (2 h post-dose, 540 mg): n=3 3646 ng ml
- Plasma concentration of AZD1208, Gmean (2 h post-dose, 700 mg): n=4 2802 ng ml
- Plasma concentration of AZD1208, Gmean (2 h post-dose, 800 mg): n=2 1705 ng ml
- Plasma concentration of AZD1208, Gmean (4 h post-dose, 120 mg): n=3 1649 ng ml
- Plasma concentration of AZD1208, Gmean (4 h post-dose, 240 mg): n=6 1899 ng ml
- Plasma concentration of AZD1208, Gmean (4 h post-dose, 360 mg): n=3 2483 ng ml
- Plasma concentration of AZD1208, Gmean (4 h post-dose, 540 mg): n=3 2508 ng ml
- Plasma concentration of AZD1208, Gmean (4 h post-dose, 700 mg): n=4 2882 ng ml
- Plasma concentration of AZD1208, Gmean (4 h post-dose, 800 mg): n=2 2509 ng ml
- Plasma concentration of AZD1208, Gmean (6 h post-dose, 120 mg): n=3 1657 ng ml
- Plasma concentration of AZD1208, Gmean (6 h post-dose, 240 mg): n=6 1637 ng ml
- Plasma concentration of AZD1208, Gmean (6 h post-dose, 360 mg): n=2 2130 ng ml
- Plasma concentration of AZD1208, Gmean (6 h post-dose, 540 mg): n=3 2023 ng ml
- Plasma concentration of AZD1208, Gmean (6 h post-dose, 700 mg): n=4 3291 ng ml
- Plasma concentration of AZD1208, Gmean (6 h post-dose, 800 mg): n=2 3401 ng ml
- Plasma concentration of AZD1208, Gmean (8 h post-dose, 120 mg): n=3 1262 ng ml
- Plasma concentration of AZD1208, Gmean (8 h post-dose, 240 mg): n=6 1466 ng ml
- Plasma concentration of AZD1208, Gmean (8 h post-dose, 360 mg): n=3 1813 ng ml
- Plasma concentration of AZD1208, Gmean (8 h post-dose, 540 mg): n=3 1739 ng ml
- Plasma concentration of AZD1208, Gmean (pre-dose, 120 mg): n=3 903.1 ng ml
- Plasma concentration of AZD1208, Gmean (pre-dose, 240 mg): n=6 560.9 ng ml
- Plasma concentration of AZD1208, Gmean (pre-dose, 360 mg): n=3 602.5 ng ml
- Plasma concentration of AZD1208, Gmean (pre-dose, 540 mg): n=4 266.6 ng ml
- Plasma concentration of AZD1208, Gmean (pre-dose, 700 mg): n=3 819 ng ml
- Plasma concentration of AZD1208, Gmean (pre-dose, 800 mg): n=2 1099 ng ml
- Half-life, max (following a single dose): 103 h
- Half-life, min (following a single dose): 18.9 h
- Mean half-life (following a single dose): 37.2 h
- Median Tmax (multiple dosing): ~ 4 h
- Tmax range (multiple dosing): 1.5 to 6 h
- AZD1208 dose observed in urine (multiple dosing, Day 15): 0.5%
- Renal clearance (single and multiple dosing): negligible
- AZD1208 dose eliminated in urine (single dose, over 72 h): ~ 1%
- Median Tmax (single dosing): ~ 5 h
- Tmax range (single dosing): 1.5 to 25 h
